{"source": "paper PMC11677527", "about": "“Predicting Pharmacokinetics of Active Constituents in Spatholobi caulis by Using Physiologically Based Pharmacokinetic Models” (Pharmaceuticals, 2024)", "key": {"Caco-2 cell monolayer": {"test_system": "Caco-2 cell monolayer", "parameters": "method as in PMID 36680806, PMID 26501241", "conditions": "Caco-2 cell monolayer model; cited from earlier work"}, "[1]": {"parameters": "method as in PMID 34303214", "conditions": "rats, p.o. SPC 30 g crude drug/kg; doses of 1-4: 0.062, 0.11, 0.71, 1.31 mg/kg; cited from earlier work"}, "[2]": {"test": "Observed pharmacokinetics in rats after oral SPC (previous study)", "assay_type": "in vivo, rat", "conditions": "p.o. SPC"}, "[3]": {"test": "Verification pharmacokinetic experiment in rats, SPC 60 g crude drug/kg by gavage, UFLC-MS/MS, DAS 2.0", "assay_type": "in vivo, rat", "method": "To validate the accuracy of PBPK models in predicting the pharmacokinetics of SPC constituents at different oral doses, the pharmacokinetic behavior of these four constituents from SPC in rats were analyzed by UFLC-MS/MS. The parameters were calculated using Drug and Statistics Software version 2.0, and then these validated values (Val.) were used to check the accuracy of the Calc. values and evaluated by FE.\nThe pharmacokinetic fitting results of rats given 60 g crude drug/kg body weight of SPC by gavage were verified by experiments. The verification experiment was conducted according to our previous pharmacokinetic study. In brief, 1.5 mL suspension of SPC was given to rats by oral administration; 300 μL blood samples from orbital venous at 0.083, 0.25, 0.5, 0.75, 1.0, 1.5, 2, 3, 4, 6, 8, and 12 h were collected and pretreated with heparin sodium. After centrifugation, the plasma samples were obtained and further processed for subsequent detection by UFLC-MS/MS; the detailed analysis method is shown in Supplementary Data (Table S1 and Figure S1). The concentration-time curve of each compound was gained, and the pharmacokinetic parameters were calculated using DAS 2.0 software (DAS 2.0, Mathematical Pharmacology Professional Committee of China, Shanghai, China). The results of these four constituents were compared with the PBPK parameters predicted in rats at an oral dose of 60 g crude drug/kg body weight of SPC.\n1. The instrument and analytical conditions of UFLC-MS/MS method\n4 constituents (1. 3′-methoxydadizein; 2. 8-O-methylretusin; 3. Daidzin; and 4. […]\nThe internal standard (IS) carbamazepine with a purity of more than 99 % was purchased from Beijing JK-chemical technology Co. Ltd., (Beijing China). Heparin sodium was gained from Tianjin biochemical pharmaceutical Co. Ltd, (Tianjin, China).\nAmmonium acetate of HPLC grade, methanol and acetonitrile of LC-MS grade were purchased from Sigma (LOT# BCBK6717V, sigma-aldrich, Co., MO, USA) and Fisher (Fisher Corp., Fair lawn, NJ, USA) respectively. The experimental ultrapure water was prepared by Millipore Milli-Q ultrapure water preparation apparatus (Millipore Sigma, […]\nThe detailed information of Shimadzu UFLC-MS/MS 8050 liquid mass system equipped with Nexera X2UFLC liquid chromatography system and 8050 triple quadrupole mass spectrometers with an electrospray ionization source were listed in our previous study. The supporting LabSolution workstation was used for data […]\nThe separation without superposition of analytes in plasma sample was achieved on a Kinetex® C18 chromatographic column (100mm×2.1mm i.d.; 2.6 μm, 100 Å; Phenomenex, Inc., Torrance, CA, USA) assembled with a Phenomenex p/n AJ0-9000 C18 protection column. The mobile phase was consisted of 0.5 mM ammonium acetate in water (A) and ACN (B). The gradient elution program was selected ultimately as […]\n95 % B (18.7–22 min). Column and automatic sampler temperature were set as 30 °C and 4 °C respectively. The flow rate of mobile phase was 0.35 mL/min while sample injection volume was 4 μL.\nMultiple reaction monitoring (MRM) of positive or negative modes were used as scanning modes for the analytes and IS. Other essential parameters were successively optimized as: Nebulizing gas flow, 3 L/min; Heating gas flow, 10 L/min; Drying gas flow, 10 L/min; Interface temperature, 300 °C; DL temperature, 250 °C; Interface and detector voltage were each set as 3.0 kV and 1.8 kV. The detection parameters such as retention time (RT), dwell time (DT), quadrupole 1 pre-rod bias (Q1), collision energy […]\nTable S1 The retention time and ion equivalent parameters of 4 constituents in rat […]\nConstituents Retention Precursor Precursor Product time Pre energy Pre time (min) ion species ion ion (msec) Bias (V) Bias"}, "[4]": {"conditions": "compartment model parameters, DAS 2.0, rats p.o. SPC 60 g crude drug/kg, Mean, 5 rats"}, "[5]": {"conditions": "statistical moment parameters, DAS 2.0, rats p.o. SPC 60 g crude drug/kg, Mean, 5 rats"}, "[6]": {"conditions": "statistical moment parameters, DAS 2.0, rats p.o. SPC 60 g crude drug/kg, Mean, 5 rats, in µg·h²/mL"}}, "note": "Read-outs that look alike come from different tables or passages of the source.", "data": [{"smiles": "O=c1c(-c2ccc(O)cc2)coc2cc(O[C@@H]3O[C@H](CO)[C@@H](O)[C@H](O)[C@H]3O)ccc12", "note": "[Constituent 3, daidzin]", "values": [{"measurement": "Papp", "setting": "Caco-2 cell monolayer", "value": 4, "unit": "×10⁻⁶ cm/s"}, {"measurement": "AUC0→t Obs.", "setting": "[1]", "value": 28.4, "unit": "ng·h/mL"}, {"measurement": "AUC0→∞ Obs.", "setting": "[1]", "value": 30.5, "unit": "ng·h/mL"}, {"measurement": "Cmax Obs.", "setting": "[1]", "value": 15.1, "unit": "ng/mL"}, {"measurement": "Tmax Obs.", "setting": "[1]", "value": 0.21, "unit": "h"}, {"measurement": "time of slight secondary absorption peak", "setting": "[2]", "value": 6, "unit": "h"}, {"measurement": "K10", "setting": "[3]; [4]", "value": 0.981, "unit": "h⁻¹"}, {"measurement": "K12", "setting": "[3]; [4]", "value": 0.402, "unit": "h⁻¹"}, {"measurement": "K21", "setting": "[3]; [4]", "value": 0.15, "unit": "h⁻¹"}, {"measurement": "Ka", "setting": "[3]; [4]", "value": 16.131, "unit": "h⁻¹"}, {"measurement": "Tlag", "setting": "[3]; [4]", "value": 0, "unit": "h"}, {"measurement": "V1/F", "setting": "[3]; [4]", "value": 37.289, "unit": "L/kg"}, {"measurement": "t1/2Ka", "setting": "[3]; [4]", "value": 0.385, "unit": "h"}, {"measurement": "t1/2α", "setting": "[3]; [4]", "value": 0.868, "unit": "h"}, {"measurement": "concentration at 0.083 h", "setting": "[3]; rat, plasma, oral, time 0.083 h, rats p.o. SPC 60 g crude drug/kg, doses of 1-4: 0.124, 0.22, 1.4, 2.62 mg/kg, 5 rats", "value": 16.4, "unit": "ng/mL"}, {"measurement": "concentration at 0.25 h", "setting": "[3]; rat, plasma, oral, time 0.25 h, rats p.o. SPC 60 g crude drug/kg, doses of 1-4: 0.124, 0.22, 1.4, 2.62 mg/kg, 5 rats", "value": 28, "unit": "ng/mL"}, {"measurement": "concentration at 0.5 h", "setting": "[3]; rat, plasma, oral, time 0.5 h, rats p.o. SPC 60 g crude drug/kg, doses of 1-4: 0.124, 0.22, 1.4, 2.62 mg/kg, 5 rats", "value": 21, "unit": "ng/mL"}, {"measurement": "concentration at 0.75 h", "setting": "[3]; rat, plasma, oral, time 0.75 h, rats p.o. SPC 60 g crude drug/kg, doses of 1-4: 0.124, 0.22, 1.4, 2.62 mg/kg, 5 rats", "value": 18.4, "unit": "ng/mL"}, {"measurement": "concentration at 1 h", "setting": "[3]; rat, plasma, oral, time 1 h, rats p.o. SPC 60 g crude drug/kg, doses of 1-4: 0.124, 0.22, 1.4, 2.62 mg/kg, 5 rats", "value": 10.9, "unit": "ng/mL"}, {"measurement": "concentration at 1.5 h", "setting": "[3]; rat, plasma, oral, time 1.5 h, rats p.o. SPC 60 g crude drug/kg, doses of 1-4: 0.124, 0.22, 1.4, 2.62 mg/kg, 5 rats", "value": 5.55, "unit": "ng/mL"}, {"measurement": "concentration at 2 h", "setting": "[3]; rat, plasma, oral, time 2 h, rats p.o. SPC 60 g crude drug/kg, doses of 1-4: 0.124, 0.22, 1.4, 2.62 mg/kg, 5 rats", "value": 3.16, "unit": "ng/mL"}, {"measurement": "concentration at 3 h", "setting": "[3]; rat, plasma, oral, time 3 h, rats p.o. SPC 60 g crude drug/kg, doses of 1-4: 0.124, 0.22, 1.4, 2.62 mg/kg, 5 rats", "value": 2.62, "unit": "ng/mL"}, {"measurement": "concentration at 4 h", "setting": "[3]; rat, plasma, oral, time 4 h, rats p.o. SPC 60 g crude drug/kg, doses of 1-4: 0.124, 0.22, 1.4, 2.62 mg/kg, 5 rats", "value": 1.56, "unit": "ng/mL"}, {"measurement": "concentration at 6 h", "setting": "[3]; rat, plasma, oral, time 6 h, rats p.o. SPC 60 g crude drug/kg, doses of 1-4: 0.124, 0.22, 1.4, 2.62 mg/kg, 5 rats", "value": 1.39, "unit": "ng/mL"}, {"measurement": "concentration at 8 h", "setting": "[3]; rat, plasma, oral, time 8 h, rats p.o. SPC 60 g crude drug/kg, doses of 1-4: 0.124, 0.22, 1.4, 2.62 mg/kg, 5 rats", "value": 1.18, "unit": "ng/mL"}, {"measurement": "AUC(0-t)", "setting": "[3]; rat, plasma, po, 1.4 mg/kg, compartment model parameters, DAS 2.0, rats p.o. SPC 60 g crude drug/kg, Mean, 5 rats, read-out: AUC(0-t)", "value": 37.1, "unit": "ng·h/mL"}, {"measurement": "AUC(0-inf)", "setting": "[3]; rat, plasma, po, 1.4 mg/kg, compartment model parameters, DAS 2.0, rats p.o. SPC 60 g crude drug/kg, Mean, 5 rats, read-out: AUC(0-∞)", "value": 39.5, "unit": "ng·h/mL"}, {"measurement": "CL/F", "setting": "[3]; rat, plasma, po, 1.4 mg/kg, compartment model parameters, DAS 2.0, rats p.o. SPC 60 g crude drug/kg, Mean, 5 rats, read-out: CL/F (converted)", "value": 594, "unit": "mL/min/kg"}, {"measurement": "half-life", "setting": "[3]; rat, plasma, po, 1.4 mg/kg, compartment model parameters, DAS 2.0, rats p.o. SPC 60 g crude drug/kg, Mean, 5 rats, read-out: t1/2β (converted)", "value": 36.5, "unit": "h"}, {"measurement": "AUC(0-t)", "setting": "[3]; rat, plasma, po, 1.4 mg/kg, statistical moment parameters, DAS 2.0, rats p.o. SPC 60 g crude drug/kg, Mean, 5 rats, read-out: AUC(0-t)", "value": 35.5, "unit": "ng·h/mL"}, {"measurement": "AUC(0-inf)", "setting": "[3]; rat, plasma, po, 1.4 mg/kg, statistical moment parameters, DAS 2.0, rats p.o. SPC 60 g crude drug/kg, Mean, 5 rats, read-out: AUC(0-∞)", "value": 35.9, "unit": "ng·h/mL"}, {"measurement": "CL/F", "setting": "[3]; rat, plasma, po, 1.4 mg/kg, statistical moment parameters, DAS 2.0, rats p.o. SPC 60 g crude drug/kg, Mean, 5 rats, read-out: CLz/F (converted)", "value": 652, "unit": "mL/min/kg"}, {"measurement": "MRT last", "setting": "[3]; rat, plasma, po, 1.4 mg/kg, statistical moment parameters, DAS 2.0, rats p.o. SPC 60 g crude drug/kg, Mean, 5 rats, read-out: MRT(0-t)", "value": 1.83, "unit": "h"}, {"measurement": "MRT inf", "setting": "[3]; rat, plasma, po, 1.4 mg/kg, statistical moment parameters, DAS 2.0, rats p.o. SPC 60 g crude drug/kg, Mean, 5 rats, read-out: MRT(0-∞)", "value": 2.09, "unit": "h"}, {"measurement": "Tmax", "setting": "[3]; rat, plasma, po, 1.4 mg/kg, statistical moment parameters, DAS 2.0, rats p.o. SPC 60 g crude drug/kg, Mean, 5 rats, read-out: Tmax", "value": 0.25, "unit": "h"}, {"measurement": "Vd/F", "setting": "[3]; rat, plasma, po, 1.4 mg/kg, statistical moment parameters, DAS 2.0, rats p.o. SPC 60 g crude drug/kg, Mean, 5 rats, read-out: Vz/F", "value": 103, "unit": "L/kg"}, {"measurement": "half-life", "setting": "[3]; rat, plasma, po, 1.4 mg/kg, statistical moment parameters, DAS 2.0, rats p.o. SPC 60 g crude drug/kg, Mean, 5 rats, read-out: t1/2z (converted)", "value": 1.82, "unit": "h"}, {"measurement": "AUC(0-t)", "setting": "[3]; rat, plasma, po, 2.62 mg/kg, rats, p.o. SPC 60 g crude drug/kg, doses of 1-4: 0.124, 0.22, 1.42, 2.62 mg/kg, n = 5, read-out: AUC0→t Val.", "value": 35.5, "unit": "ng·h/mL"}, {"measurement": "AUC(0-inf)", "setting": "[3]; rat, plasma, po, 2.62 mg/kg, rats, p.o. SPC 60 g crude drug/kg, doses of 1-4: 0.124, 0.22, 1.42, 2.62 mg/kg, n = 5, read-out: AUC0→∞ Val.", "value": 35.9, "unit": "ng·h/mL"}, {"measurement": "Tmax", "setting": "[3]; rat, plasma, po, rats, p.o. SPC 60 g crude drug/kg, doses of 1-4: 0.124, 0.22, 1.42, 2.62 mg/kg, n = 5, read-out: Tmax Val.", "value": 0.25, "unit": "h"}, {"measurement": "Cmax", "setting": "[3]; [5]", "value": 27.183, "unit": "ng/mL"}, {"measurement": "Cz", "setting": "[3]; [5]", "value": 0.117, "unit": "µg/L"}, {"measurement": "VRT(0-t)", "setting": "[3]; [5]", "value": 4.934, "unit": "h^2"}, {"measurement": "VRT(0-∞)", "setting": "[3]; [5]", "value": 8.138, "unit": "h^2"}, {"measurement": "elimination rate constant", "setting": "[3]; [5]", "value": 0.429, "unit": "h⁻¹"}, {"measurement": "AUMC(0-t)", "setting": "[3]; [6]", "value": 65.207}, {"measurement": "AUMC(0-∞)", "setting": "[3]; [6]", "value": 75.236}]}]}
